In PMC6982022 (International Journal of Molecular Sciences, 2019):
Entries after “also recorded” stand apart in the source; their conditions may differ. Where two headings read alike, the source gives them in different places.

Experiments:
[1] = system: male CD rats; experiment: Rat mating trial (fertility); format: in vivo; details: for Conceptus, mean abnormal / Fertile/Mated / Conceptus, mean normal: 150 mg/kg/day oral days 0-34
Protocol: Eighteen adult male CD rats were divided into three groups of six rats each. One group of six CD rats was treated with vehicle (distilled water containing 0.9% benzyl alcohol) via oral gavage (5 mL/kg/day), and the second group (6 rats) was treated with NB-DGJ (in distilled water containing 0.9% benzyl alcohol) via oral gavage at 150 mg/kg/day (in approximately 5 mL/kg of water) daily for 35 consecutive days. The third group (6 rats) was treated with 15 mg/kg NB-DNJ in distilled water containing 0.9% benzyl alcohol) via oral gavage (in approximately 5 mL/kg of water) daily for 35 consecutive days (Figure S5).
(§1) Rats were weighed on day 0 (first day of dosing) and weekly thereafter. Dosages were adjusted based on the most recent body weight. Males were cohabited with untreated females (one male per two females) weekly at weeks 1 through 9 [38, 39]. Females were necropsied seven days after separation from males to determine the numbers of implantation sites. Individual male rats were bled from the tail vein at weeks 0, 1, 4, and 7 and serum was harvested by centrifugation. At week 11, the male rats were weighed, anesthetized, and exsanguinated. Sera were analyzed for inhibin B by ELISA (enzyme-linked immunosorbent assay), and rat follicle stimulating hormone (rFSH) and testosterone by radioimmunoassay. Testes, epididymides, ventral prostates, and seminal vesicles were excised and weighed. The left testis was homogenized, and spermatid head counts obtained.
(§2) Statistical analysis using the Student’s t-test was performed on body weights, paired testes weights, ventral prostrate weights, seminal vesicle weights, paired epididymal weights, spermatid head counts, percent motile and normal epididymal sperm. We used analysis of variance (ANOVA) for serum inhibin B, rFSH, and testosterone, since these measurements were repeated throughout the study period. The effect of NB-DNJ at 15 mg/kg/day dose in the rat model was studied following the same protocol as that for NB-DGJ.

[2] = Pharmacokinetic study, single oral bolus, plasma LC/MS/MS; format: in vivo, rat; details: male CD rats, single oral 150 mg/kg; for Cmax: male, CD, plasma, po, 150 mg/kg
Protocol: Four male CD rats (225–235 g) were purchased from Harlan (Indianapolis, IN, USA) with in-dwelling jugular cannulas and allowed to acclimate for 72 h in climate-regulated holding rooms in the University of Minnesota’s AAALAC-certified animal facilities. Standard rat chow and water were provided ad libitum throughout the study. NB-DGJ was formulated as described above to 33.75 mg/mL for in vivo administration. Rats were dosed orally by using a 15 G × 3” disposable gavage needle with a maximum volume of 5 mL/kg body weight. At various time points (0.083, 0.25, 0.5, 1, 2, 4, 8, 12, 24 and 48 h) following dosing, approximately 0.1 mL of blood was collected from each rat into BD Microtainer® with Lithium Heparin (Becton-Dickinson). Plasma was then isolated by allowing the samples to sit at room temperature for 30 min followed by microcentrifugation at 15,000× g for 5 min. Plasma samples were then stored at −70 °C until processing and analysis.
Frozen plasma samples were thawed on ice and processed by adding 2 volumes of 100% acetonitrile (containing 750 ng/mL miglitol (N-hydroxyethyl-1-deoxynojirimycin) as an internal standard) and vortexed. The samples were then incubated on ice for 1 h and then microcentrifuged at 15,000× g for 5 min. The cleared supernatants were then transferred to 12 × 32 mm glass vials with inserts (Thermo Scientific™ National™ Inserts for Target™ LoVial™ Wide-Opening Vials).
Processed samples were analyzed by LC/MS/MS using a previously published method. A standard curve consisting of normal rat plasma containing varying concentrations (1500, 500, 166.7, 55.6, 18.5, 6.2, 2.1, 0.7 and 0.22 ng/mL) of NB-DGJ was constructed and processed as described above. The analytical system was composed of a Quattro Ultima triple quadrupole MS/MS coupled with a Waters Acquity UPLC (Ultra Performance Liquid Chromatography). UPLC isocratic separation of analytes was performed using a Waters Atlantis Hilic 3 µm, 150 × 2.1 mm analytical column (Waters Corporation, Milford, MA, USA) maintained at 30 °C. The eluent was a mixture of acetonitrile/water/buffer (75/10/15, v/v/v) delivered at 0.25 mL/min. The buffer consisted of 100 mM ammonium acetate, pH 5. For the quantification of NB-DGJ and miglitol (internal standard), the transitions m/z 220 (Q1) → m/z 158 (Q3) and m/z 208 (Q1) → m/z 146 (Q3) were monitored, respectively. Data reduction was performed with QuanLynx software. PK analysis was performed by WinNonLin using a non-compartmental model.

[3] = system: CGT; details: cited from earlier work
[4] = system: C57BL/6 mice; details: cited from earlier work
[5] = system: male CD rats; experiment: Serum hormone levels during mating trial; format: in vivo, rat; details: 150 mg/kg/day; weeks 0, 1, 4 and 7; ANOVA
Source text: as §1, §2

t½_Lambda_z ([2]; n = 4, plasma): 6.5 h
Cmax ([2]; rat, converted from ng/mL, read-out: Cmax (plasma level) in molar units): 50 µM
Cmax ([2]; rat, n = 4, plasma, read-out: Cmax): 11000 ng/mL
tmax ([2]; rat, n = 4, plasma): 1.3 h
AUC(0-inf) ([2]; rat, n = 4, plasma, non-compartmental, read-out: AUCINF_Obs): 55600 ng·h/mL
Serum inhibin B versus control [5]: No significant differences
Serum rFSH versus control [5]: No significant differences
Serum testosterone versus control [5]: No significant differences
Structure (SMILES): CCCCN1C[C@H](O)[C@@H](O)[C@@H](O)[C@H]1CO [NB-DGJ, N-butyldeoxygalactonojirimycin]
Treatment time after which fertility was blocked ([1]; 150 mg/kg/day oral): 35 days
Conceptus, mean abnormal ([1]; week of study 1): 0.3
Fertile/Mated ([1]; week of study 1): 6/6
Conceptus, mean normal ([1]; week of study 1, both females per male): 14
Conceptus, mean abnormal ([1]; week of study 2): 0.1
Conceptus, mean normal ([1]; week of study 2): 6
Fertile/Mated ([1]; week of study 2): 6/6
Conceptus, mean abnormal ([1]; week of study 3): 0
Conceptus, mean normal ([1]; week of study 3): 1
Fertile/Mated ([1]; week of study 3): 3/6
Conceptus, mean abnormal ([1]; week of study 4): 0/0
Conceptus, mean normal ([1]; week of study 4): 0/0
Fertile/Mated ([1]; week of study 4): 0/6
Conceptus, mean abnormal ([1]; week of study 5): 2
Fertile/Mated ([1]; week of study 5): 6/6
Conceptus, mean normal ([1]; week of study 5 (after termination of dosing)): 10
Conceptus, mean abnormal ([1]; week of study 6): 0.3
Conceptus, mean normal ([1]; week of study 6): 13
Fertile/Mated ([1]; week of study 6): 6/6
Conceptus, mean abnormal ([1]; week of study 7): 0.3
Conceptus, mean normal ([1]; week of study 7): 13
Fertile/Mated ([1]; week of study 7): 6/6
Conceptus, mean abnormal ([1]; week of study 8): 0.3
Conceptus, mean normal ([1]; week of study 8): 14
Fertile/Mated ([1]; week of study 8): 6/6
Conceptus, mean abnormal ([1]; week of study 9): 0.5
Conceptus, mean normal ([1]; week of study 9): 13
Fertile/Mated ([1]; week of study 9): 6/6
Return of fertility after termination of dosing ([1]; 150 mg/kg/day oral for 35 days): within one week
Reduction of numbers of normal conceptuses ([1]; 150 mg/kg/day oral, second week): 50%
Treated rats infertile ([1]; 150 mg/kg/day oral, week four): 100%
Treated rats rendered infertile ([1]; 150 mg/kg/day oral, week three): 50%
Effect on fertility (in words) ([1]; 150 mg/kg/day, daily single oral dose, 35 days): induced reversible infertility; also recorded: caused reversible infertility
Adverse effects in treated animals ([1]; daily dose of 150 mg/kg, 35 days): lack of adverse effects
IC50 ([3]; ref 20): 41.4 µM
IC50 ([3]; ref 36): 10 µM
Effect on fertility (in words) ([4]; C57BL/6J male mice, 150 mg/kg): reversible infertility
Time for fertility to resume ([4]; C57BL/6J mice): approximately three weeks
Testicular histology, spermiogenesis (in words) ([4]; dose equivalent to 1200 mg/kg of NB-DNJ): disrupts spermiogenesis
